Experimental data from patent US9688760B2, “Anti-leukocyte adhesion for the mitigation of potential adverse events caused by CD3-specific binding domains” (AMGEN RESEARCH (MUNICH) GMBH, priority 2013, dated 2017).

What was measured:
[1] = tested on: stroke patients; conditions: iv, for several days; equivalent to 700 mg per os; cited from earlier work
[2] = tested on: HUVEC; experiment: In vitro flow chamber: T cell-rolling and adhesion on HUVEC, long-term conditions; type: cell-based, human; conditions: non-stimulated HUVEC, 40 min
Method: (§1) Human brain microvascular endothelial cells (HBMEC) (#1000, Sciencell Research Laboratories) or human umbilical vein endothelial cells (HUVEC) (#C-12200, Promocell) were used as endothelial cell-model. Cryopreserved HBMEC at passage 1 (>5×10^5 cells/ml) were first cultivated in fibronectin-coated Nunclon-treated 75 cm^2 cell culture flasks (#156499, Nunc) at 37° C. and 5% CO2 in a Heraeus Cytoperm 2 (Thermo Scientific) according to the manufacturer's instructions. Sub-cultivation of HBMEC was done with the Detach Kit (#C-41200, Promocell) consisting of HEPES-buffered balanced salt solution (#C-40000, Promocell), trypsin-EDTA solution (0.04%/0.03%) (#C-41000, Promocell) and trypsin neutralization solution (TNS, #C-41100, Promocell). Briefly, the medium was aspirated from the HBMEC-layer and cells were washed with 2 ml of HEPES-buffered balanced salt solution. Addition of 2 ml of trypsin-EDTA solution for 1-5 min at room temperature led to detachment of HBMEC from the flask bottom. Inactivation of trypsin-EDTA solution was performed by addition of 2 ml of trypsin neutralization solution to the cell suspension. Cells were centrifuged at 300 g for 4 min in a Heraeus Megafuge 40 (Thermo Scientific) and seeded at a cell density of 5×10^5 cells per gelatin-coated 75 cm^2 cell culture flask (#L7230, Biochrom). HBMEC for rolling and adhesion experiments were cultivated in RPMI 1640 medium (#FG1215, Biochrom) supplemented with Nu-Serum IV (10%) (#355505, BD Biosciences), dialyzed FBS (10%) (#SZ0115, Biochrom), MEM-vitamins (1%) (#K0373, Biochrom), L-glutamine (1%) (#K0283, Biochrom), sodium-pyruvate (1%) (#L0473, Biochrom), heparin (10 U/ml) (#L6510, Biochrom), and […] cell growth factor ECGS (30 μg/ml) (#02-102, Millipore). Cultivation of HUVEC was done in endothelial cell growth medium (#C-22010, Promocell) supplemented with dialyzed FBS (10%) (#SZ0115, Biochrom) using gelatin-coated 75 cm^2 cell culture flasks. Sub-cultivation of HUVEC was performed with the Detach Kit ([…], Promocell) and cells were seeded at a cell density of 4.0-7.5×10^5 cells per 75 cm^2 cell culture flask.
Isolation of human PBMC from blood was performed by modified density gradient centrifugation as described elsewhere. Briefly, 15-20 ml of freshly drawn heparinized blood was transferred in Biocoll (#L6115, Biochrom)-containing Leukosep tubes (#227290, Greiner bio-one) and centrifuged in a Hettich Rotanta 460 RS Type 5606 (Hettich Laborapparate) at 1066 g for 15 min. After removal of the plasma fraction the PBMC containing phase was transferred in a new tube and washed twice with FACS-buffer (D-PBS #L1820, 5% FBS #SO115, Biochrom). Erythrocyte lysis was performed with lysis buffer (8.29 g/l NH4Cl, 1.00 g/l KHCO3, 0.037 g/l EDTA) for 5 min at room temperature. […]

[3] = cited from earlier work
[4] = tested on: HBMEC; experiment: In vitro flow chamber: T cell-rolling on HBMEC, long-term conditions; type: cell-based, human
Method: as §1
Isolation of human PBMC from blood was performed by modified density gradient centrifugation as described elsewhere. Briefly, 15-20 ml of freshly drawn heparinized blood was transferred in Biocoll (#L6115, Biochrom)-containing Leukosep tubes (#227290, Greiner bio-one) and centrifuged in a Hettich Rotanta 460 RS Type 5606 (Hettich Laborapparate) at 1066 g for 15 min. After removal of the plasma fraction the PBMC containing phase was transferred in a new tube and washed twice with FACS-buffer (D-PBS #L1820, 5% FBS #SO115, Biochrom). Erythrocyte lysis was performed with lysis buffer (8.29 g/l NH4Cl, 1.00 g/l KHCO3, 0.037 g/l EDTA) for 5 min at room temperature. For subsequent purification of untouched T cells the human Pan T cell-isolation Kit II (#130-091-156, Miltenyi Biotec) was used according to the manufacturer's instructions.
The ibidi Pump System (#10902, ibidi) was used for cultivation of endothelial cells under flow conditions as well as for performing adhesion and rolling assays of human T cells on endothelial cells. The system consists of the ibidi Pump (#10905, ibidi) and the ibidi Fluidic Unit (#10903, ibidi) which work together to generate a unidirectional flow of medium in an attached slide with a defined channel height. The system is controlled by the ibidi Pump Control software (#10908, notebook+software, ibidi). For cultivation of HBMEC or HUVEC under flow conditions, HBMEC or HUVEC were seeded at a cell density of 2.5×10^6 cells/ml into μ-slide I^0.4 Luer Collagen IV (#80172, ibidi) or μ-slide I^0.4 Luer ibiTreat (#80176, ibidi), respectively according to the manufacturer's instructions and cultivated with a perfusion set “yellow/green” (#10964, ibidi) for 48 h under wall shear stress of 5 or 10 dyn/cm^2, respectively. […]

[5] = pH 6; cited from earlier work
[6] = tested on: patients; experiment: Phase 1 clinical study: Blinatumomab with PPS co-medication; type: in vivo, human
Method: In a phase 1 clinical study three patients were treated with Blinatumomab at an initial dose of 5 μg/m^2/day for 1 week followed by a dose escalation to 60 μg/m^2/day for additional 3 to 7 weeks.

Q: Which results are given for `CN(C)c1ccc(O)c2c1C[C@H]1C[C@H]3[C@H](N(C)C)C(O)=C(C(N)=O)C(=O)[C@@]3(O)C(O)=C1C2=O` [minocycline, Minocycline]?
A: daily doses found to be safe and well-tolerated [1]: up to 10 mg/kg; mean T cell-rolling velocity±SD ([2]; +AMG 103 10 ng/ml, T cells pre-incubated with 50 μg/ml minocycline): 217±92 μm/sec; mean T cell-rolling velocity±SD ([2]; −AMG 103, +minocycline 50 μg/ml): 233±29 μm/sec; bioavailability ([3]; after oral administration): ~100%; in vivo half-life ([3]; in vivo): approximately 24 hours

Q: What does the source list for “natalizumab: antibody approved for the treatment of multiple sclerosis; binds to VLA-4 on T cells [reference compound]”?
A: mean T cell-rolling velocity±SD ([4]; non-stimulated HBMEC, +AMG 103 10 ng/ml, T cells pre-incubated with 1 μg/ml natalizumab, 40 min): 444±110 μm/sec; mean T cell-rolling velocity±SD ([4]; non-stimulated HBMEC, −AMG 103, +natalizumab 1 μg/ml, 40 min): 445±81 μm/sec

Q: For “β1→4-D-Xylan-2,3-bis(hydrogen sulfate) [PPS, reference compound]”, which solubility in water [5] is on record?
A: 50%

Q: And the “T cell-counts in peripheral blood vs baseline, 45 minutes after start of infusion or stepwise dose increase” value ([6]; all three patients with PPS co-medication)?
A: no decline of T cell-counts

Q: And the T cell-redistribution kinetics ([6]; all three patients with intravenous PPS, absence of CD19-positive target cells)?
A: delayed T cell-redistribution kinetics

Q: And the “earliest detection of decreased T cell-counts in peripheral blood after start of infusion or stepwise dose increase of Blinatumomab” value ([6]; intervention with intravenous PPS)?
A: ≥ 2 h

Q: And the “discontinuation of Blinatumomab treatment due to neurological adverse effects” value ([6]; three patients with intravenous PPS at start of infusion and dose step, high risk (low B:T cell-ratios))?
A: none of these three patients had to discontinue treatment

Q: What about the “mean T cell-rolling velocity±SD” value ([4]; histamine-stimulated HBMEC, +AMG 103 10 ng/ml, +PPS 200 μg/ml, 45 min) of the same molecule?
A: 483±157 μm/sec

Q: What about the “mean T cell-rolling velocity±SD” value ([4]; histamine-stimulated HBMEC, −AMG 103, +PPS 200 μg/ml, 45 min) of the same molecule?
A: 442±156 μm/sec

Q: And the “mean T cell-rolling velocity±SD” value ([4]; non-stimulated HBMEC, +AMG 103 10 ng/ml, +PPS 200 μg/ml, 40 min)?
A: 465±116 μm/sec

Q: And the “mean T cell-rolling velocity±SD” value ([4]; non-stimulated HBMEC, −AMG 103, +PPS 200 μg/ml, 40 min)?
A: 514±159 μm/sec
